Source: patent US20110207770A1, “PHARMACEUTICAL PRODUCT COMPRISING A MUSCARINIC RECEPTOR ANTAGONIST AND A SECOND ACTIVE INGREDIENT” (ASTRAZENECA AB, priority 2008, published 2011)
Where two headings read alike, the source gives them in different places.

Assays:
[1] = molecular target: T1, Recombinant human M3 receptor (Homo sapiens, UniProt P20309); test: Muscarinic Receptor Radioligand Binding Assay ([3H]-NMS, SPA)
T1 construct: expressed in transfected cells; host or cells: CHO-K1 cells (membranes prepared from them)
Protocol: The inhibitory effects of compounds of the muscarinic antagonists were determined by a Muscarinic Receptor Radioligand Binding Assay.
Recombinant human M3 receptor was expressed in CHO-K1 cells. Cell membranes were prepared and binding of [3H]-N-methyl scopolamine ([3H]-NMS) and compounds was assessed by a scintillation proximity assay (SPA). The incubation time was 16 hours at ambient temperature in the presence of 1% (v/v) DMSO. The assay was performed in white 96 well clear-bottomed NBS plates (Corning). Prior to the assay, the CHO cell membranes containing M3 receptor were coated onto SPA WGA (Wheat germ agglutinin) beads (GE Healthcare). Non specific binding was determined in the presence of 1 μM Atropine.
Radioactivity was measured on a Microbeta scintillation counter (PerkinElmer) using a 3H protocol with a 2 minutes per well read time. […] Concentration dependent inhibition of [3H]-NMS binding by compounds was expressed as pIC50.

[2] = Dynamic vapour sorption (DVS) analysis of crystalline form; assay type: physicochemical; settings: at 80% RH, 25° C., crystalline material
Protocol: Dynamic vapour sorption (DVS) analysis was performed on a Surface Measurement systems (SMS) DVS-Intrinsic moisture sorption analyser. The instrument was controlled by SMS Analysis Suite software (DVS-Intrinsic Control v1.0.0.30). Analysis of the data was performed using Microsoft Excel 2007 together DVS Standard Analysis Suite (v6.0.0.7). Sample temperature was maintained at 25° C. and the sample humidity was obtained by mixing streams of wet and dry nitrogen at a total flow rate of 200 mlmin^−1. The relative humidity was measured using a calibrated Rotronic probe (dynamic range 1-100% Relative Humidity (RH)) located close to the sample. The weight change of the sample as a function of % RH was constantly monitored by the microbalance (accuracy ±0.005 mg). Typically a PXRD would be run prior to analysis. 20 mg of sample was then placed in a tared stainless steel mesh basket under ambient conditions. The sample was loaded and unloaded at 40% RH and 25° C. (typical room conditions) and the sample subjected to a graduated DVS regime over 2 cycles using the parameters shown in Table 1.

[3] = Gravimetric Vapour Sorption (GVS) of crystalline forms; assay type: physicochemical; settings: at 80% RH, crystalline material
Protocol: Gravimetric Vapour Sorption (GVS) profiles were measured using a Surface Measurements Systems Dynamic Vapour Sorption DVS-1 or a DVS Advantage instrument. The solid sample ca. 1-5 mg was placed into a glass vessel and the weight of the sample was recorded during a dual cycle step method (40 to 90 to 0 to 90 to 0% relative humidity (RH), in steps of 10% RH).

[4] = CHO-K1 cell membranes, [3H]-NMS, 16 hours at ambient temperature, 1% DMSO, read-out: Ki in the M3 binding assay

T1 sequence (P20309 whole entry): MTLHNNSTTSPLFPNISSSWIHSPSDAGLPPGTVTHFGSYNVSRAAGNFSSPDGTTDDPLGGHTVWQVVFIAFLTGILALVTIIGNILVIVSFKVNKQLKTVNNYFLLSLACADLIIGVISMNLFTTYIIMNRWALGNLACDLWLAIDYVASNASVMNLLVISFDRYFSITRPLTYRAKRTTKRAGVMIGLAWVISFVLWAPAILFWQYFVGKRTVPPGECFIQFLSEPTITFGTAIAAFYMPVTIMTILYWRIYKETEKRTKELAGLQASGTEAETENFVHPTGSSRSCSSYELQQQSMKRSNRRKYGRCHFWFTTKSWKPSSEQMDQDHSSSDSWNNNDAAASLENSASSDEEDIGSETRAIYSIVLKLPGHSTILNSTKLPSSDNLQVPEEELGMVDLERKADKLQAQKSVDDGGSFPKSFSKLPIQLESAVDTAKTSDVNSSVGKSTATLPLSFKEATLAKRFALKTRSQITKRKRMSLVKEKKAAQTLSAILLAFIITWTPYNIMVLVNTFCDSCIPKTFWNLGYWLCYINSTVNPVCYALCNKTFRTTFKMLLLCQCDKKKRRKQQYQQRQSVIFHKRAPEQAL

Structure (SMILES) | Ki [1, 4] [pM] | other results
O[C@](c1ccccc1)(c1cc(C[N+]23CCC(CC2)[C@@H](Oc2cccc(F)c2)C3)on1)C1CCCCC1 [Example 3, (R)-1-[3-((R)-Cyclohexyl-hydroxy-phenyl-methyl)-isoxazol-5-ylmethyl]-3-(3-fluoro-phenoxy)-1-azonia-bicyclo[2.2.2]octane chloride] | – | Ki [1]: 660 pM
Cc1ccc(O[C@H]2C[N+]3(Cc4cc(C(O)(c5ccccc5)c5ccccc5)no4)CCC2CC3)cc1F [Example 7, (R)-3-(3-Fluoro-4-methyl-phenoxy)-1-[3-(hydroxy-diphenyl-methyl)-isoxazol-5-ylmethyl]-1-azonia-bicyclo[2.2.2]octane bromide] | 400 | –
O=S(=O)([O-])c1ccccc1.O[C@](c1ccccc1)(c1cc(C[N+]23CCC(CC2)[C@@H](Oc2ccc(F)cc2)C3)on1)C1CCCCC1 [Example 2, (R)-1-[3-((R)-Cyclohexyl-hydroxy-phenyl-methyl)-isoxazol-5-ylmethyl]-3-(4-fluoro-phenoxy)-1-azonia-bicyclo[2.2.2]octane benzenesulfonate] | – | DVS weight increase [2]: 0.2 % w/w
O[C@](c1ccccc1)(c1nnc(C[N+]23CCC(CC2)[C@@H](Oc2ccc(F)cc2)C3)o1)C1CCCCC1 [Example 5, (R)-1-[5-((R)-Cyclohexyl-hydroxy-phenyl-methyl)-[1,3,4]oxadiazol-2-ylmethyl]-3-(4-fluoro-phenoxy)-1-azonia-bicyclo[2.2.2]octane bromide] | 700 | –
O[C@](c1ccccc1)(c1cc(C[N+]23CCC(CC2)[C@@H](Oc2ccc(F)cc2)C3)on1)C1CCCCC1 [Example 1, (R)-1-[3-((R)-Cyclohexyl-hydroxy-phenyl-methyl)-isoxazol-5-ylmethyl]-3-(4-fluoro-phenoxy)-1-azonia-bicyclo[2.2.2]octane chloride] | 800 | –
O[C@](c1ccccc1)(c1cc(C[N+]23CCC(CC2)[C@@H](Oc2cccc(F)c2)C3)on1)C1CCCCC1 [Example 8, (R)-1-[3-((R)-Cyclohexyl-hydroxy-phenyl-methyl)-isoxazol-5-ylmethyl]-3-(3-fluoro-phenoxy)-1-azonia-bicyclo[2.2.2]octane 2-hydroxy-ethanesulfonate] | – | GVS mass increase [3]: 0.15%
OC(c1ccccc1)(c1ccccc1)c1cc(C[N+]23CCC(CC2)[C@@H](Sc2cccc(F)c2)C3)on1 [Example 6, (R)-3-(3-Fluoro-phenylsulfanyl)-1-[3-(hydroxy-diphenyl-methyl)-isoxazol-5-ylmethyl]-1-azonia-bicyclo[2.2.2]octane bromide] | 150 | –
